From patent US9504685B2, “Method for treating a pulmonary hypertension condition” (Gilead Sciences, Inc., priority 2006, dated 2016)
Where two headings read alike, the source gives them in different places.

Test system: subjects with PAH
Settings: for Subjects who died: 12 weeks
Experimental: All adverse effects (AEs) reported during the course of the study were reported and summaries of all AEs were prepared showing frequencies and percentages of: • (a) subjects with at least 1 AE; • (b) subjects with possibly or probably drug-related AEs; • (c) subjects with at least 1 serious AE (SAE); • (d) subjects with an AE leading to study discontinuation; and • (e) subjects who died. […]
The safety population was defined as all randomized subjects who received at least 1 dose of study drug. Subjects were considered as belonging to a treatment group according to the highest actual treatment dose received. Any subject who received 10 mg ambrisentan on any day was included in the 10 mg group for safety analyses in the entire study. Any subject who received 5 mg ambrisentan on any day and never received 10 mg ambrisentan on any day was included in the 5 mg group for safety analyses in the entire study. Otherwise, any subject who received only placebo was included in the placebo group for safety analyses in the study.

[1] = male subjects, 10 mg once daily

COC(c1ccccc1)(c1ccccc1)[C@H](Oc1nc(C)cc(C)n1)C(=O)O [ambrisentan]
subjects who died during the study or within 30 days of the last dose (5 mg once daily): 1.5%
Subjects who died (5 mg once daily): 1 (1.5) subjects (% of safety populati
subjects who died during the study or within 30 days of the last dose (10 mg once daily): 1.5%
Subjects who died (10 mg once daily): 1 (1.5) subjects (% of safety populati
Subjects who died (combined 5 mg and 10 mg groups): 2 (1.5) subjects (% of safety populati
effect on PT, INR or weekly warfarin-type anticoagulant dose (in vivo): no effect
male fertility hormones and serial semen samples (in vivo): did not suggest that ambrisentan was associated with an adverse effect on male reproductive potential
mean changes from baseline at Week 12 for serum ALT and AST (in vivo): no notable mean changes
subjects who developed elevated serum aminotransferase concentrations >3×ULN (in vivo): None
change from baseline in testosterone concentration at Week 12 (male subjects, 5 mg once daily): -0.099 ± 3.48 nmol/L
change from baseline in testosterone concentration at Week 12 [1]: -0.099 ± 3.48 nmol/L
change over baseline in FSH concentration at Week 12 [1]: +1.83 IU/liter
